Data on seven molecules can be found in patent US20160222056A1, “SUBSTITUTED PHENYLALANINE DERIVATIVES” (BAYER PHARMA AKTIENGESELLSCHAFT, priority 2013, published 2016).

Where a name gives a salt, the structure may show the parent alone.

Holding throughout (format): biochemical
The target of assay [1] is T1, human factor XIa (Homo sapiens, UniProt P03951).
T1 construct: purchased Kordia
Nature of the assay: Measurement of FXIa inhibition (fluorogenic peptide substrate). Conditions: human factor XIa from Kordia, substrate Boc-Glu(OBzl)-Ala-Arg-AMC, 30 min at 22° C.; read-out: IC50 (FXIa inhibition).

Assay [2] deals with human and animal plasma. Nature of the assay: Anticoagulatory activity: activated partial thromboplastin time (aPTT) in plasma. As to conditions: in vitro in plasma, C.K. Prest kit, 37° C. for 3 minutes; plasma species of Table B not stated. The method in brief: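 Citrated plasma (1:9, 0.11 M citrate; 4000 g, 15 min) from human, mouse, rat, rabbit, pig or dog. Value is concentration giving 1.5-fold aPTT prolongation.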

Assay [3] concerns the target T2, human plasmin (Homo sapiens, UniProt P00747).
T2 construct: purchased Kordia
Nature of the assay: Measurement of plasmin inhibition (fluorogenic peptide substrate). As to conditions: plasmin from Kordia, substrate MeOSuc-Ala-Phe-Lys-AMC, 30 min at 22° C. As to the method: The plasmin inhibition of the inventive substances is determined using a biochemical test system which utilizes the reaction of a peptidic plasmin substrate to determine the enzymatic activity of human plasmin. Here, plasmin cleaves from the peptic plasmin substrate the C-terminal aminomethylcoumarin (AMC), the fluorescence of which is measured. The determinations are carried out in microtitre plates.
Test substances are dissolved in dimethyl sulphoxide and serially diluted in dimethyl sulphoxide (3000 μM to 0.0078 μM; resulting final concentrations in the test: 50 μM to 0.00013 μM). In each case 1 μl of the diluted substance solutions are placed into the wells of white microtitre plates from Greiner (384 wells). Subsequently, the following are added successively: 20 μl of assay buffer (50 mmol/1 Tris buffer pH 7.4; 100 mmol/1 sodium chloride; 5 mmol/1 calcium chloride; 0.1% bovine serum albumin) and 20 μl of plasmin from Kordia (0.3 μg/ml in assay buffer). After 15 min of incubation, the enzyme reaction is started by addition of 20 μl of the plasmin substrate MeOSuc-Ala-Phe-Lys-AMC dissolved in assay buffer (150 μM in assay buffer) from Bachem, the mixture is incubated at room temperature (22° C.) for 30 min and fluorescence is then measured (excitation: 360 nm, emission: 460 nm). The measured emissions of the test batches with test substance are compared to those of control batches without test substance (only dimethyl sulphoxide instead of test substance in dimethyl sulphoxide), and the IC50 values are calculated from the concentration/activity relationships.

T2 sequence (P00747 581-810 limits assumed): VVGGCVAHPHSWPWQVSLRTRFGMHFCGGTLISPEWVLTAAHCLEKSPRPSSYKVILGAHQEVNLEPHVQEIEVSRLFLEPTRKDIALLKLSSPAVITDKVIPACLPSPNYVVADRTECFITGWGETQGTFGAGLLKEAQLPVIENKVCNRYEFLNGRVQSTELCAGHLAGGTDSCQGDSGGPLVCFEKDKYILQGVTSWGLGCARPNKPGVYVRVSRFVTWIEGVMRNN
T2 sequence (P00747 97-580 partner limits assumed): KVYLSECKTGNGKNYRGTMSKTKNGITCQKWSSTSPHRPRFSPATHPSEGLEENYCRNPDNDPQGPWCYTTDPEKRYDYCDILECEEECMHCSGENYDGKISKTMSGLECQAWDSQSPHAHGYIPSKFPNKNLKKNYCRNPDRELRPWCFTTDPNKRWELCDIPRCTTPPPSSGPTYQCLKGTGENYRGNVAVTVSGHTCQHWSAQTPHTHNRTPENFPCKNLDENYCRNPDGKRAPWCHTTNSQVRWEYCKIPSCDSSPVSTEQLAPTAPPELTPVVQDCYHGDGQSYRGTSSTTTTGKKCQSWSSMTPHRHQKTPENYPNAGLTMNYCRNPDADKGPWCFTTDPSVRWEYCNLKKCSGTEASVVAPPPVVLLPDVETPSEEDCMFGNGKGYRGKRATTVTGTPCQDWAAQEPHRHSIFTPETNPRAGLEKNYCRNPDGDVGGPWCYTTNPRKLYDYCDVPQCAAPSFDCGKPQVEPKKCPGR
T1 sequence (P03951 388-625 limits assumed): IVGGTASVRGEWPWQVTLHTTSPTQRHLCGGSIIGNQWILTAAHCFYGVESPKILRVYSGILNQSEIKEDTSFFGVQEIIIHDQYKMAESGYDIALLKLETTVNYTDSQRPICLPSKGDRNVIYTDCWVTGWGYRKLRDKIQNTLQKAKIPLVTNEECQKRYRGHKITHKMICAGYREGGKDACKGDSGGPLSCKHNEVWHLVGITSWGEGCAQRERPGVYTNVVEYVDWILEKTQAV
T1 sequence (P03951 19-387 partner limits assumed): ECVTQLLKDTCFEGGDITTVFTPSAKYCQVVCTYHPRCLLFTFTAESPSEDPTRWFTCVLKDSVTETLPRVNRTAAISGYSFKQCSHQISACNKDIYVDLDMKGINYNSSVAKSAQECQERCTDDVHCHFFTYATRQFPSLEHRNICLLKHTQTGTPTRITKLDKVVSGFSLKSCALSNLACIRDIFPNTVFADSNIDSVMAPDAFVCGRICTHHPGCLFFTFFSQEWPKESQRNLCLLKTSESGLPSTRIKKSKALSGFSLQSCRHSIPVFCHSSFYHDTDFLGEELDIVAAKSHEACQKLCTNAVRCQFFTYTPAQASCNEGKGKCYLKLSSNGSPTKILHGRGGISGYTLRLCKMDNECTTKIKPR

One may read the IC50 as the point on the concentration scale where inhibition reaches its midpoint. In the case of `Cc1cc(C(=O)Nc2ccn(C)n2)ncc1-c1ccc(C[C@H](NC(=O)[C@H]2CC[C@H](CN)CC2)C(=O)Nc2ccc(-c3nnn[nH]3)cc2)cc1` [Example 23, N-alpha-{[trans-4-(Aminomethyl)cyclohexyl]carbonyl}-4-{4-methyl-6-[(1-methyl-1H-pyrazol-3-yl)carbamoyl]pyridin-3-yl}-N-[4-(1H-tetrazol-5-yl)phenyl]-L-phenylalaninamide hydrochloride], the IC50 in assay [1] stood at 2.5 nM; in assay [3], 4.5 nM. Besides, the “aPTT (concentration of test substance which brings about a 1.5-fold extension of the aPTT)” value in assay [2] was 0.17 µmol/L.

Consider `Cc1nc(C(=O)NC2CCC2)ccc1-c1ccc(C[C@H](NC(=O)[C@H]2CC[C@H](CN)CC2)C(=O)Nc2ccc3cn[nH]c3c2)cc1` [Example 34, N-alpha-{[trans-4-(Aminomethyl)cyclohexyl]carbonyl}-4-[6-(cyclobutylcarbamoyl)-2-methylpyridin-3-yl]-N-1H-indazol-6-yl-L-phenylalaninamide hydrochloride], for which the IC50 in assay [1] was found to be 8.2 nM; in assay [3], 0.9 nM. The “aPTT (concentration of test substance which brings about a 1.5-fold extension of the aPTT)” value in assay [2] came to 0.41 µmol/L.

On to `Cc1nc(C(=O)NC(C)C(F)(F)F)ccc1-c1ccc(C[C@H](NC(=O)[C@H]2CC[C@H](CN)CC2)C(=O)Nc2ccc3cn[nH]c3c2)cc1` (stereo partly drawn) [Example 35, N-alpha-{[trans-4-(Aminomethyl)cyclohexyl]carbonyl}-N-1H-indazol-6-yl-4-{2-methyl-6-[(1,1,1-trifluoropropan-2-yl)carbamoyl]pyridin-3-yl}-L-phenylalaninamide hydrochloride], for which the IC50 in assay [1] was found to be 8.7 nM; in assay [3], 1.1 nM. Besides, in assay [2], the “aPTT (concentration of test substance which brings about a 1.5-fold extension of the aPTT)” value was found to be 0.49 µmol/L.

For `Cc1nc(C(=O)NC(C)C(F)(F)F)ccc1-c1ccc(C[C@H](NC(=O)[C@H]2CC[C@H](CN)CC2)C(=O)Nc2ccc3[nH]c(=O)[nH]c3c2)cc1` (stereo partly drawn) [Example 36, N-alpha-{[trans-4-(Aminomethyl)cyclohexyl]carbonyl}-4-{2-methyl-6-[(1,1,1-trifluoropropan-2-yl)carbamoyl]pyridin-3-yl}-N-(2-oxo-2,3-dihydro-1H-benzimidazol-5-yl)-L-phenylalaninamide hydrochloride], the IC50 in assay [1] was 11 nM; in assay [3], 1.2 nM. Moreover, the “aPTT (concentration of test substance which brings about a 1.5-fold extension of the aPTT)” value in assay [2] amounted to 0.21 µmol/L.

As for `Cc1nc(C(=O)NC2CCC2)ccc1-c1ccc(C[C@H](NC(=O)[C@H]2CC[C@H](CN)CC2)C(=O)Nc2ccc3[nH]c(=O)[nH]c3c2)cc1` [Example 37, N-alpha-{[trans-4-(Aminomethyl)cyclohexyl]carbonyl}-4-[6-(cyclobutylcarbamoyl)-2-methylpyridin-3-yl]-N-(2-oxo-2,3-dihydro-1H-benzimidazol-5-yl)-L-phenylalaninamide hydrochloride], the IC50 in assay [1] came to 13 nM; in assay [3], 1.5 nM. Moreover, the “aPTT (concentration of test substance which brings about a 1.5-fold extension of the aPTT)” value in assay [2] is 0.2 µmol/L.

Take `Cc1nc(C(=O)NC(C)C)ccc1-c1ccc(C[C@H](NC(=O)[C@H]2CC[C@H](CN)CC2)C(=O)Nc2cc(Cl)c3oc(=O)[nH]c3c2)cc1` [Example 38, N-alpha-{[trans-4-(Aminomethyl)cyclohexyl]carbonyl}-N-(7-chloro-2-oxo-2,3-dihydro-1,3-benzoxazol-5-yl)-4-[6-(isopropylcarbamoyl)-2-methylpyridin-3-yl]-L-phenylalaninamide hydrochloride]: the IC50 came out at 14 nM in assay [1] and 0.8 nM in assay [3]. For the same molecule, the “aPTT (concentration of test substance which brings about a 1.5-fold extension of the aPTT)” value in assay [2] was found to be 0.99 µmol/L.

In the case of `Cc1nc(C(=O)NC(C)C)ccc1-c1ccc(C[C@H](NC(=O)[C@H]2CC[C@H](CN)CC2)C(=O)Nc2ccc3c(=O)[nH][nH]c3c2)cc1` [Example 39, N-alpha-{[trans-4-(Aminomethyl)cyclohexyl]carbonyl}-4-[6-(isopropylcarbamoyl)-2-methylpyridin-3-yl]-N-(3-oxo-2,3-dihydro-1H-indazol-6-yl)-L-phenylalaninamide hydrochloride], the IC50 in assay [1] came out at 4.3 nM; in assay [3] it was 1.2 nM. Moreover, the “aPTT (concentration of test substance which brings about a 1.5-fold extension of the aPTT)” value in assay [2] turned out to be 0.27 µmol/L.
